EC50 and ED100 data for 10 compounds are collected here from ChEMBL document CHEMBL1145709, “Seven New Polyacetylene Derivatives, Showing Both Potent Metamorphosis-Inducing Activity in Ascidian Larvae and Antifouling Activity Against Barnacle Larvae, from the Marine Sponge Callyspongia truncata” (1997).

The test system of one test is Amphibalanus amphitrite. Description: Antifouling activity against Balanus amphitrite larvae. The format is functional. The note with it: for EC50: Amphibalanus amphitrite, read-out: ED50 (the source's name).
Another test concerns Halocynthia roretzi. The experiment in a line: Induction of metamorphosis in ascidian Halocynthia roretzi. The format is functional. The note with it: for EC50: Halocynthia roretzi, read-out: ED50 (the source's name).

Converted amounts (≈) assume the structure as drawn.

With `C#CC#CCCCC#CC#C/C=C\CCCC/C=C\C#C` [CALLYPENTAYNE], the EC50 in the test on Amphibalanus amphitrite worked out at 0.25 µg/mL (≈ 0.918 µM).
Take `C#C/C=C\CCCC/C=C\C#CC#CCCCC#CC#C[C@H](COS(=O)(=O)[O-])OS(=O)(=O)[O-].[Na+].[Na+]` [CALLYSPONGIN A]: the EC50 in the test with Halocynthia roretzi turned out to be 3.9 µg/mL; in the test on Amphibalanus amphitrite, 0.13 µg/mL.
Regarding `C#C/C=C\CCCC/C=C\C#CC#CCCCC#CC#C[C@@H](O)COS(=O)(=O)[O-].[Na+]` [CALLYSPONGIN B], the ED100 in the test with Halocynthia roretzi amounted to 4.1 µg/mL; with Amphibalanus amphitrite it was 0.25 µg/mL.
As for `C#C/C=C\CCCC#CC#CCCCCCC/C=C\C#C` [CALLYTETRAYNE], the EC50 with Halocynthia roretzi is 30 µg/mL (≈ 109 µM); in the test on Amphibalanus amphitrite, 0.25 µg/mL (≈ 0.904 µM).
In the case of `C#C/C=C\CCCC/C=C\C#CC#CC(O)CCC#CC#CC(O)CO` (centres undefined) [CALLYTRIOL A], the EC50 in the test with Halocynthia roretzi turned out to be 0.43 µg/mL (≈ 1.23 µM); in the test on Amphibalanus amphitrite, 1.3 µg/mL (≈ 3.73 µM).
Turning to `C#C/C=C\CCCC(O)/C=C\C#CC#CCCCC#CC#CC(O)CO` (centres undefined) [CALLYTRIOL B], the EC50 in the test on Halocynthia roretzi was 0.63 µg/mL (≈ 1.81 µM); in the test with Amphibalanus amphitrite, 1.3 µg/mL (≈ 3.73 µM).
For the compound `C#C/C=C\C(O)CCC/C=C\C#CC#CCCCC#CC#CC(O)CO` (centres undefined) [CALLYTRIOL C], the EC50 in the test with Halocynthia roretzi worked out at 0.24 µg/mL (≈ 0.689 µM); with Amphibalanus amphitrite, 0.13 µg/mL (≈ 0.373 µM).
For `C#C/C=C/C(O)CCC/C=C\C#CC#CCCCC#CC#CC(O)CO` (centres undefined) [CALLYTRIOL D] the same measures were 0.38 µg/mL (≈ 1.09 µM) and 1.3 µg/mL (≈ 3.73 µM).
As to `C#C/C=C\CCCC(O)/C=C/C#CC#CCCCC#CC#CC(O)CO` (centres undefined) [CALLYTRIOL E], the figures for the EC50 in the test with Halocynthia roretzi and with Amphibalanus amphitrite were 0.63 µg/mL (≈ 1.81 µM) and 0.13 µg/mL (≈ 0.373 µM), respectively.
Regarding `C#C/C=C\CCCC/C=C\C#CC#CCCCC#CC#C[C@@H](O)CO` [SIPHONODIOL], the EC50 was 4.5 µg/mL (≈ 13.5 µM) in the test with Halocynthia roretzi and 0.25 µg/mL (≈ 0.752 µM) with Amphibalanus amphitrite.
